The test addresses T1, hAR (Homo sapiens, UniProt P10275).
T1 construct: expressed in transfected cells; host or cells: HEK 293T
T1 sequence (P10275 1-920): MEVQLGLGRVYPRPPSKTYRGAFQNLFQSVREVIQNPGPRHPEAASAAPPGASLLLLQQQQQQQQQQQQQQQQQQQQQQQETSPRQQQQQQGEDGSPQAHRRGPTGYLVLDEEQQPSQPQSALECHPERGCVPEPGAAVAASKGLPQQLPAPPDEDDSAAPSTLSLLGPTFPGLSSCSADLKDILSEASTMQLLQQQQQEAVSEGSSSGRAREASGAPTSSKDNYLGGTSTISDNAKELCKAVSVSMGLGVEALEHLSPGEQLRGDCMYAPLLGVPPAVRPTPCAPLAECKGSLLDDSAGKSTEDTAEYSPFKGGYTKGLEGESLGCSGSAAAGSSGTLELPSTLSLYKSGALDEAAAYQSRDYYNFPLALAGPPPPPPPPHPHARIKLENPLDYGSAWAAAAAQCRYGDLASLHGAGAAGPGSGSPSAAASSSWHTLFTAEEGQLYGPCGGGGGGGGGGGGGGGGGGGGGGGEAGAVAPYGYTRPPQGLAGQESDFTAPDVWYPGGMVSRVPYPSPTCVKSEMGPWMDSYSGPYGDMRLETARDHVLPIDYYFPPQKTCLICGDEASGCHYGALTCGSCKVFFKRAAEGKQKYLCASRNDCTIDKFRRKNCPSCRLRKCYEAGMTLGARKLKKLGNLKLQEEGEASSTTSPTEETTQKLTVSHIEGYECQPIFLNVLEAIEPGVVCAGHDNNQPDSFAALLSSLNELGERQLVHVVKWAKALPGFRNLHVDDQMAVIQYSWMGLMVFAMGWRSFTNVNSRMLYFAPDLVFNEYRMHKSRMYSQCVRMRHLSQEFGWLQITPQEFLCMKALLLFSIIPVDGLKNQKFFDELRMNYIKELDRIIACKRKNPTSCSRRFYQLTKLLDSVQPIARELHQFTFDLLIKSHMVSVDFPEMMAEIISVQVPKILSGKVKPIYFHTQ
In words: APRn selectivity: transactivation in HEK293T cells transiently expressing hAR. The format is cell-based. The settings on record: for agonist efficacy towards hAR (in words): HEK293T, FIG. 11; for selectivity for hPR vs hAR, hGR and hMR (in words): conclusion from hAR, hGR and hMR transactivation assays. How it is done:
Measurement of the APRn Selectivity in HEK 293T.
The HEK-293T cells were cultured and transfected according to the method described above for the PR transactivation assays. The expression vectors pcDNA-hAR, kindly provided by G. A. Coetzee, pchGR (Hellal-Levy, C et al. FEBS Lett 1999, 464, 9), and pchMR (Fagart, J. et al. EMBO J. 1998, 17, 3317) were used for studying the ability of APRn to activate or inactivate the AR, GR and MR, respectively. For each transfection assays, 2 μg of the expression vector was used together with 7 μg of the GRE2-Luc reporter vector. Dihydrotestosterone (DHT), dexamethasone (Dex) and Aldosterone (Aldo) were selected as AR, GR and MR ligands, respectively. They were used at the concentration of 10^−9 M. The APRn agonist and antagonist efficacy for AR, GR and MR were measured as described above for PR. The results are the mean±SEM of three independent experiments.
Transfection assays were performed in HEK 293T cells by using expression vectors for the hAR, hGR and hMR and the GRE2-Luc reporter used for the PR transactivation assays.

Structures are written as SMILES.

For `CC(=O)[C@H]1CC[C@H]2[C@@H]3CC=C4C[C@@H](F)CC[C@]4(C)[C@H]3CC[C@]12C` [APR-16, 3β-Fluoropregn-5-en-20-one], the “agonist efficacy towards hAR (in words)” value was “low agonist efficacy”; the “selectivity for hPR vs hAR, hGR and hMR (in words)” value was “selective hPR antagonists”.
Consider `CC#C[C@]1(O)CCC2C3CC[C@H]4CCCC[C@]4(C)C3CC[C@@]21C` (stereo partly drawn) [APR-42, 17α-(1-Propynyl)-5α-androstan-17β-ol], for which the “agonist efficacy towards hAR (in words)” value is “low agonist efficacy”; the “selectivity for hPR vs hAR, hGR and hMR (in words)” value is “selective hPR antagonists”.
The like results for `C[C@]12CCC3C(CC=C4C[C@@H](F)CC[C@@H]43)C1CCC2=O` (stereo partly drawn) [APR-47, 3β-Fluoro-19-nor-androst-5-en-17-one] were, in that order, “low agonist efficacy” and “selective hPR antagonists”.

The values above are taken from patent publication US20130203718A1 (priority 2010, published 2013).
